Key:
SIRT1 [1] = target: T1, SIRT1 (Homo sapiens, UniProt Q96EB6); assay: SIRT1 mass spectrometry (MS) based deacetylation assay; type: biochemical; conditions: for EC50: SIRT1 activation, mass spectrometry assay, read-out: ED50 MS ASSAY; for FOLD ACT. MS: fold activation of SIRT1 as determined by MS
T1 sequence (Q96EB6 1-747): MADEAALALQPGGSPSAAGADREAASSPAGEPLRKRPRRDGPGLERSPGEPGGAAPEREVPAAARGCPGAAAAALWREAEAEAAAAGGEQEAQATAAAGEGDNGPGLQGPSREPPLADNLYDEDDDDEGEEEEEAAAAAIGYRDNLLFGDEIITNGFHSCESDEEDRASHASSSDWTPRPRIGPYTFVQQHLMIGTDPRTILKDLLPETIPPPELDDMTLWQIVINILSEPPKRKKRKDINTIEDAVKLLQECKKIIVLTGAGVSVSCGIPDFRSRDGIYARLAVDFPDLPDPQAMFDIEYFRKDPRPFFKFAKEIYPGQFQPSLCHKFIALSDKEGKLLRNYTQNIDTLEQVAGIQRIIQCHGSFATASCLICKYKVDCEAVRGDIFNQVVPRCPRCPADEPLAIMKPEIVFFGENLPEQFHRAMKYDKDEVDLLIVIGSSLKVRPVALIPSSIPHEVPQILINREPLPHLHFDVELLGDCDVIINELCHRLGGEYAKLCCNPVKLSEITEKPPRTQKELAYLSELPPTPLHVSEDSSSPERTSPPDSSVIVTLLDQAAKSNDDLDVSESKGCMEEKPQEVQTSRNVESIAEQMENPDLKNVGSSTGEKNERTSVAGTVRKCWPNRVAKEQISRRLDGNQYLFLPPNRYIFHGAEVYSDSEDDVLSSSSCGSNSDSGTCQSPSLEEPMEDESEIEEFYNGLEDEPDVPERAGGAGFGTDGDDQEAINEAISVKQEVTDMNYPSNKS

SIRT1 [2] = target: T1, SIRT1; assay: SIRT1 fluorescence polarization (FP) deacetylation assay with p53-based peptide substrates; type: biochemical; conditions: for EC50: SIRT1 activation, read-out: ED50 FP ASSAY; for IC50: Sirt1 Inhibitors
Description: A fluorescence polarization or mass spectrometry based assay was used to identify modulators of SIRT1 activity. The same assay may be used to identify modulators of any sirtuin protein. The fluorescence polarization assays utilizes one of two different peptides based on a fragment of p53, a known sirtuin deacetylation target. Compounds 1-18 were tested using a substrate containing peptide 1 having 14 amino acid residues as follows: […](Ac)NleSTEG (SEQ ID NO: 1) wherein K(Ac) is an acetylated lysine residue and Nle is a norleucine. The peptide is labeled with the fluorophore MR121 (excitation 635 nm/emission 680 nm) at the C-terminus and biotin at the N-terminus. The sequence of the peptide substrate is based on p53 with several modifications. In particular, all arginine and leucine residues other than the acetylated lysine have replaced with serine so that the peptide is not susceptible to trypsin cleavage in the absence of deacetylation. In addition, the methionine residue naturally present in the sequence has been replaced with the norleucine because the methionine may be susceptible to oxidation during synthesis and purification. […] This peptide is labeled with the fluorophore MR121 (excitation 635 nm/emission 680 nm) at the C-termini and biotin at the N-termini. The sequence of the peptide substrates are based on p53 with several modifications. In particular, all arginine and leucine residues other than the acetylated lysine residues have replaced with serine so that the peptides are not susceptible to trypsin cleavage in the absence of deacetylation. In addition, the methionine residues naturally present in the sequences have been replaced with the norleucine because the methionine may be susceptible to oxidation during synthesis and purification. […] The peptide is labeled with the fluorophore 5TMR (excitation 540 nm/emission 580 nm) at the C-terminus. The sequence of the peptide substrate is also based on p53 with several modifications. In addition, the methionine residue naturally present in the sequence was replaced with the norleucine because the methionine may be susceptible to oxidation during synthesis and purification.
The peptide substrates were exposed to a sirtuin protein in the presence of NAD^+ to allow deacetylation of the substrate and render it sensitive to cleavage by trypsin. Trypsin was then added and the reaction was carried to completion (i.e., the deacetylated substrate is cleaved) releasing the MR121 or 5TMR fragment. Streptavidin is then added to the reaction where it can bind both the uncleaved substrate (i.e., any remaining acetylated substrate) and the non-fluorescent portion of the cleaved peptide substrate (i.e., the biotin containing fragment). The fluorescence polarization signal observed for the full length peptide substrates bound to streptavidin was higher than the fluorescence polarization signal observed for the released MR121 or 5TMR C-terminal fragment. In this way, the fluorescence polarization obtained is inversely proportional to the level of deacetylation (e.g., the signal is inversely proportional to the activity of the sirtuin protein). Results were read on a microplate fluorescence polarization reader (Molecular Devices Spectramax MD) with appropriate excitation and emission filters.
The fluorescence polarization assays using peptide 1 was conducted as follows: 0.5 μM peptide substrate and 150 μM βNAD^+ is incubated with 0.1 μg/mL of SIRT1 for 60 minutes at 37° C. in a reaction buffer (25 mM Tris-acetate pH8, 137 mM Na—Ac, 2.7 mM K—Ac, 1 mM Mg—Ac, 0.05% Tween-20, 0.1% Pluronic F127, 10 mM CaCl2, 5 mM DTT, 0.025% BSA, 0.15 mM Nicotinamide). Test compounds 1-18 were solubilized in DMSO and added to the reaction at 11 concentrations ranging from 0.7 μM to 100 μM. […]

NCI-H358 cells = assay: Cellular ATP Assay (ATPLite 1Step normalized to AlamarBlue viability); type: cell-based; conditions: Homo sapiens, compounds that raised intracellular ATP levels, read-out: ED50 ATP ASSAY
Description: Cellular ATP levels are an indirect measurement of cellular metabolic rates and, by extension, mitochondrial function. […] The ATP assay is combined with a cellular viability assay so that cellular ATP levels can be normalized to viable cells. Cellular ATP levels were measured using the ATPLite 1Step Kit (PerkinElmer) and cellular viability was measured using the cell permeable dye, AlamarBlue™.
The Cellular ATP Assay is a multiplexed assay that measures both ATP levels and viability of a given cell sample. This assay is run in a 96-well Assay Plate and data are reported as the [ATP]/viability for each well in the Assay Plate.
The ATPLite 1 Step™ Kit is a single-step luminescent cell-based assay for detection of ATP. The kit contains lyophilized substrate mixture, comprised of D-luciferin and the firefly (Photinus pyralis) enzyme luciferase. Additionally, the kit contains a detergent-based reconstitution buffer that induces the lysis of cellular membranes. The luciferase in the assay mixture catalyzes a reaction between the free cellular ATP and D-luciferin to produce bioluminescence according to the schematic reaction outlined below. The amount of light produced is proportional to the cellular ATP concentration.
The AlamarBlue™ Assay is a single-step assay that utilizes a soluble, non-toxic, cell permeable dye that is added to cell growth media. This dye undergoes electron reduction in viable cells but not dead cells. The reduced dye product gives a fluorescent signal which can be monitored with a fluorescence plate reader (excitation 545 nm and emission 575 nm). The amount of fluorescence generated in a given well is proportional to the number of viable cells. The viability signal generated by this assay is used to normalize the ATP signal from the ATPLite 1Step™ assay results.
The material was dissolved in 100% vehicle (DMSO) to yield a final concentration of 10 mM (stock solution). The stock solution was serially diluted with 100% DMSO as described in SOP 7.10.
In this assay NCI-H358 cells (obtained from the American Tissue Culture Collection, ATCC) were seeded in 96 well microplates (10^4 cells/well). The NCI-H358 Growth Culture Media consists of RPMI 1640 Media supplemented with 10% FBS, […] streptomycin, and 100 units/mL penicillin. […] After 48 hours of compound treatment under cell growth conditions, plates were removed from incubator, and 15 μl of AlamarBlue™ dye was added to each well. Cell microplates were incubated with dye for 2 hours under growth conditions, and fluorescence was subsequently measured using a plate reader. Media containing AlamarBlue™ was removed, and plates were washed in 100 μl of PBS per well. This wash was removed, and 200 μl of 1×ATPLite 1Step reagent was added to each well. Luminescence was then measured using a plate reader. The ATP signal for each well, measured by the luminescence scan, was normalized to its corresponding cell viability value, measured by the fluorescence scan, to generate the average ATP level per viable cell unit (ATP/vCell). The ATP/vCell for each treatment was then normalized to the average vehicle ATP/vCell for its respective cell microplate, yielding the normalized ATP/vCell (norm. ATP/vCell). Finally, the norm. ATP/vCell for each unique treatment was averaged across plate replicates, generating the average norm. ATP/vCell.
Each of these ATP levels was normalized to the cell viability in the corresponding treatment well, generating the ATP/vCell value. Each ATP/vCell value was subsequently normalized to its average Vehicle ATP/vCell values for its respective cell microplate.
Data are represented as the normalized ATP/vCell (arbitrary units). […] These values represent an average of three plate replicates.
A number of compounds were screened for their affect on ATP levels in the assay as described in Example 5. […] NA means that the compound was not tested using the indicated assay.

| SMILES | EC50 (SIRT1 [1]) [µM] | EC50 (SIRT1 [2]) [µM] | FOLD ACT. MS (SIRT1 [1]) | IC50 (SIRT1 [2]) [µM] | EC50 (NCI-H358 cells) [µM] |
| --- | --- | --- | --- | --- | --- |
| COc1ccc(C(=O)Nc2cccc(-c3nc4ncccc4o3)c2)cc1OC [Compound 52] | 5 to 50 | 5 to 50 | B (B (Fold Activation <250%)) | – | < 50 |
| Cc1ccc(C)n1-c1cccc(C(=O)Nc2ccc(-c3nc4ncccc4o3)cc2)c1 [Compound 19] | > 150 | > 150 | – | – | – |
| COc1cc(C)ccc1C(=O)Nc1cccc(-c2nc3ncccc3o2)c1 [Compound 51] | 5 to 50 | 5 to 50 | B (B (Fold Activation <250%)) | – | – |
| O=C(Nc1ccc(-c2nc3ncccc3o2)cc1)c1cccc(OC(F)(F)F)c1 [Compound 32] | > 150 | > 150 | – | – | – |
| COc1ccc(C(=O)Nc2cccc(-c3nc4ncccc4o3)c2)c(OC)c1 [Compound 55] | 5 to 50 | 5 to 50 | B (B (Fold Activation <250%)) | – | – |
| COc1cccc(OC)c1C(=O)Nc1ccc(-c2nc3ncccc3o2)cc1 [Compound 27] | > 150 | > 150 | – | – | – |
| COc1ccc(C(=O)Nc2ccc(-c3nc4ncccc4o3)cc2)c(OC)c1OC [Compound 34] | > 150 | > 150 | – | – | – |
| CN(C)c1cccc(C(=O)Nc2cccc(-c3nc4ncccc4o3)c2)c1 [Compound 42] | 5 to 50 | 5 to 50 | B (B (Fold Activation <250%)) | – | < 50 |
| CN(C)c1ccc(C(=O)Nc2cccc(-c3nc4ncccc4o3)c2)cc1 [Compound 43] | 5 to 50 | 5 to 50 | B (B (Fold Activation <250%)) | – | – |
| COc1ccc(C(=O)Nc2ccc(-c3nc4ncccc4o3)cc2)cc1Cl [Compound 30] | – | – | – | > 150 | – |
| COc1ccc(C(=O)Nc2ccc(-c3nc4ncccc4o3)cc2)cc1OC [Compound 33] | > 150 | > 150 | – | – | – |
| COc1ccc(C(=O)Nc2ccc(-c3nc4ncccc4o3)cc2)cc1C(F)(F)F [Compound 22] | > 150 | > 150 | – | – | – |
| Cc1cc(SCc2sc(-c3ccc(C(F)(F)F)cc3)nc2C)ccc1OCC(=O)O [Compound 291] | – | – | – | 51 to 100 | – |

The next lines start with results.

| EC50 (SIRT1 [1]) [µM] | EC50 (SIRT1 [2]) [µM] | FOLD ACT. MS (SIRT1 [1]) | IC50 (SIRT1 [2]) [µM] | SMILES | EC50 (NCI-H358 cells) [µM] |
| --- | --- | --- | --- | --- | --- |
| > 150 | > 150 | – | – | O=C(Nc1ccc(-c2nc3ncccc3o2)cc1)c1ccc(N2CCCCC2)cc1 [Compound 21] | – |
| > 150 | > 150 | – | – | O=C(Nc1ccc(-c2nc3ncccc3o2)cc1)c1ccccc1 [Compound 37] | – |
| > 150 | > 150 | – | – | O=C(Nc1ccc(-c2nc3ncccc3o2)cc1)c1ccc(N2CCCC2)cc1 [Compound 29] | – |
| – | – | – | > 150 | O=C(Nc1ccc(-c2nc3ncccc3o2)cc1)c1ccccc1N1CCOCC1 [Compound 28] | – |
| – | – | – | > 150 | CN(C)c1cccc(C(=O)Nc2ccc(-c3nc4ncccc4o3)cc2)c1 [Compound 23] | – |
| > 150 | > 150 | – | – | O=C(Nc1ccc(-c2nc3ncccc3o2)cc1)c1ccc(N2CCOCC2)cc1 [Compound 20] | – |
| > 150 | > 150 | – | – | COc1cccc(C(=O)Nc2ccc(-c3nc4ncccc4o3)cc2)c1C [Compound 31] | – |
| > 150 | > 150 | – | – | COc1ccc(C(=O)Nc2ccc(-c3nc4ncccc4o3)cc2)cc1 [Compound 35] | – |
| > 150 | > 150 | – | – | CN(C)c1ccc(C(=O)Nc2ccc(-c3nc4ncccc4o3)cc2)cc1 [Compound 24] | – |
| > 150 | > 150 | – | – | COc1ccc(C(=O)Nc2ccc(-c3nc4ncccc4o3)cc2)c(OC)c1 [Compound 36] | – |
| – | – | – | 51 to 100 | N#Cc1cccc(C(=O)Nc2ccc(-c3nc4ncccc4o3)cc2)c1 [Compound 25] | – |
